Measurements as given in ChEMBL document CHEMBL1833797, “Microwave assisted synthesis and antimicrobial evaluation of new fused pyran derivatives bearing 2-morpholinoquinoline nucleus” (2011).
Values after ≈ are worked out from the molar mass of the structure shown.

Tests used:
Escherichia coli = assay: Antimicrobial activity against Escherichia coli MTCC 443 for 24 hrs by microdilution method; type: functional; conditions: MTCC 443, 24 h
Salmonella typhi = assay: Antimicrobial activity against Salmonella typhi MTCC 98 for 24 hrs by microdilution method; type: functional, Salmonella enterica subsp. enterica serovar Typhi; conditions: Salmonella enterica, MTCC 98, 24 h
Clostridium tetani = assay: Antimicrobial activity against Clostridium tetani MTCC 449 for 24 hrs by microdilution method; type: functional; conditions: MTCC 449, 24 h
Bacillus subtilis = assay: Antimicrobial activity against Bacillus subtilis MTCC 441 for 24 hrs by microdilution method; type: functional; conditions: MTCC 441, 24 h
Vibrio cholerae = assay: Antimicrobial activity against Vibrio cholerae MTCC 3906 for 24 hrs by microdilution method; type: functional; conditions: MTCC 3906, 24 h
Candida albicans = assay: Antifungal activity against Candida albicans MTCC 227 for 48 hrs by microdilution method; type: functional; conditions: MTCC 227, 48 h
Streptococcus pneumoniae = assay: Antimicrobial activity against Streptococcus pneumoniae MTCC 1936 for 24 hrs by microdilution method; type: functional; conditions: MTCC 1936, 24 h
Aspergillus fumigatus = assay: Antifungal activity against Aspergillus fumigatus MTCC 3008 for 48 hrs by microdilution method; type: functional; conditions: MTCC 3008, 48 h

Row | Compound | MIC (Escherichia coli) [µg/mL] | MIC (Salmonella typhi) [µg/mL] | MIC (Clostridium tetani) [µg/mL] | MIC (Bacillus subtilis) [µg/mL] | MIC (Vibrio cholerae) [µg/mL] | MIC (Candida albicans) [µg/mL] | MIC (Streptococcus pneumoniae) [µg/mL] | MIC (Aspergillus fumigatus) [µg/mL]
1 | Cc1ccc2nc(N3CCOCC3)c(C3C(C#N)=C(N)Oc4cc(C)oc(=O)c43)cc2c1 (centres undefined) | 100 (≈ 232 µM) | 200 (≈ 465 µM) | 200 (≈ 465 µM) | 500 (≈ 1160 µM) | 200 (≈ 465 µM) | 1000 (≈ 2320 µM) | 500 (≈ 1160 µM) | 200 (≈ 465 µM)
2 | Cc1ccc2nc(N3CCOCC3)c(C3C(C#N)=C(N)Oc4cc(O)ccc43)cc2c1 (centres undefined) | 200 (≈ 483 µM) | 200 (≈ 483 µM) | 200 (≈ 483 µM) | 500 (≈ 1210 µM) | 200 (≈ 483 µM) | > 1000 | 500 (≈ 1210 µM) | > 1000
3 | Cc1ccc2nc(N3CCOCC3)c(C3C(C#N)=C(N)OC4=C3C(=O)CC(C)(C)C4)cc2c1 (centres undefined) | 200 (≈ 450 µM) | 250 (≈ 562 µM) | 500 (≈ 1120 µM) | 200 (≈ 450 µM) | 250 (≈ 562 µM) | 250 (≈ 562 µM) | 25 (≈ 56.2 µM) | 1000 (≈ 2250 µM)
4 | O=C(N[C@H](CO)[C@H](O)c1ccc([N+](=O)[O-])cc1)C(Cl)Cl [CHLORAMPHENICOL] | 50 (≈ 155 µM) | 50 (≈ 155 µM) | 50 (≈ 155 µM) | 50 (≈ 155 µM) | 50 (≈ 155 µM) | – | 50 (≈ 155 µM) | –
5 | Cc1cc2c(c(=O)o1)C(c1cc3ccccc3nc1N1CCOCC1)C(C#N)=C(N)O2 (centres undefined) | 62.5 (≈ 150 µM) | 100 (≈ 240 µM) | 100 (≈ 240 µM) | 200 (≈ 480 µM) | 100 (≈ 240 µM) | 1000 (≈ 2400 µM) | 200 (≈ 480 µM) | 200 (≈ 480 µM)
6 | CC1(C)CC(=O)C2=C(C1)OC(N)=C(C#N)C2c1cc2ccccc2nc1N1CCOCC1 (centres undefined) | 250 (≈ 581 µM) | 200 (≈ 465 µM) | 250 (≈ 581 µM) | 200 (≈ 465 µM) | 250 (≈ 581 µM) | 500 (≈ 1160 µM) | 500 (≈ 1160 µM) | 1000 (≈ 2320 µM)
7 | COc1ccc2nc(N3CCOCC3)c(C3C(C#N)=C(N)Oc4cc(C)oc(=O)c43)cc2c1 (centres undefined) | 200 (≈ 448 µM) | 250 (≈ 560 µM) | 250 (≈ 560 µM) | 200 (≈ 448 µM) | 250 (≈ 560 µM) | 250 (≈ 560 µM) | 250 (≈ 560 µM) | 1000 (≈ 2240 µM)
8 | Cc1ccc2nc(N3CCOCC3)c(C3C(C#N)=C(N)Oc4c3ccc3ccccc43)cc2c1 (centres undefined) | 200 (≈ 446 µM) | 250 (≈ 557 µM) | 500 (≈ 1110 µM) | 500 (≈ 1110 µM) | 12.5 (≈ 27.9 µM) | > 1000 | 500 (≈ 1110 µM) | 500 (≈ 1110 µM)
9 | N#CC1=C(N)Oc2cc(O)ccc2C1c1cc2ccccc2nc1N1CCOCC1 (centres undefined) | 100 (≈ 250 µM) | 200 (≈ 499 µM) | 250 (≈ 624 µM) | 250 (≈ 624 µM) | 250 (≈ 624 µM) | 1000 (≈ 2500 µM) | 250 (≈ 624 µM) | > 1000
10 | O=C(O)c1cn(C2CC2)c2cc(N3CCNCC3)c(F)cc2c1=O [CIPROFLOXACIN] | 25 (≈ 75.4 µM) | 25 (≈ 75.4 µM) | – | – | 25 (≈ 75.4 µM) | – | 50 (≈ 151 µM) | –
11 | N#CC1=C(N)Oc2c(c(=O)oc3ccccc23)C1c1cc2ccccc2nc1N1CCOCC1 (centres undefined) | 200 (≈ 442 µM) | 100 (≈ 221 µM) | 200 (≈ 442 µM) | 250 (≈ 553 µM) | 250 (≈ 553 µM) | 500 (≈ 1110 µM) | 250 (≈ 553 µM) | 500 (≈ 1110 µM)
12 | COc1ccc2nc(N3CCOCC3)c(C3C(C#N)=C(N)OC4=C3C(=O)c3ccccc3C4=O)cc2c1 (centres undefined) | 100 (≈ 202 µM) | 200 (≈ 404 µM) | 100 (≈ 202 µM) | 200 (≈ 404 µM) | 250 (≈ 506 µM) | > 1000 | 200 (≈ 404 µM) | 1000 (≈ 2020 µM)
13 | COc1ccc2nc(N3CCOCC3)c(C3C(C#N)=C(N)Oc4c3ccc3ccccc43)cc2c1 (centres undefined) | 200 (≈ 431 µM) | 100 (≈ 215 µM) | 250 (≈ 538 µM) | 250 (≈ 538 µM) | 200 (≈ 431 µM) | 100 (≈ 215 µM) | 250 (≈ 538 µM) | 1000 (≈ 2150 µM)
14 | COc1ccc2nc(N3CCOCC3)c(C3C(C#N)=C(N)OC4=C3C(=O)CCC4)cc2c1 (centres undefined) | 200 (≈ 462 µM) | 200 (≈ 462 µM) | 500 (≈ 1160 µM) | 250 (≈ 578 µM) | 250 (≈ 578 µM) | 500 (≈ 1160 µM) | 250 (≈ 578 µM) | 1000 (≈ 2310 µM)
15 | Cc1ccc2nc(N3CCOCC3)c(C3C(C#N)=C(N)Oc4[nH]nc(C)c43)cc2c1 (centres undefined) | 200 (≈ 497 µM) | 250 (≈ 621 µM) | 250 (≈ 621 µM) | 200 (≈ 497 µM) | 250 (≈ 621 µM) | 1000 (≈ 2480 µM) | 200 (≈ 497 µM) | 1000 (≈ 2480 µM)
